The values that follow come from patent US6939963B2, “Method for the preparation of selectively-substituted corroles and new substituted corroles” (Technion Research and Development Foundation Ltd., priority 2001, dated 2005).

Series [1] can be described thus: Aggregation in solution judged from linear plots of UV-vis absorbance (ε determination). In kind it is physicochemical. As to conditions: low concentrations relevant for UV-vis measurements, 10^−4-10^−6 M. An excerpt: (§1) The most variable compounds of the invention are 2 and 3, because of the easy substitution of the chloride in the —SO2Cl functions of 2 and the large variety of metal ions that can be inserted into either 2 or 3. In the present example, metallation of compound 3 is described. Generally, the same methods that were developed for corrole 1 worked for 3 as well: GaCl3/pyridine for obtaining compound 15, the gallium(III) complex of 3; Mn(OAc)2/DMF for obtaining compound 16, the manganese(III) complex of 3; Co(OAc)2/PPh3/EtOH for obtaining compound 17, the (triphenylphosphine)cobalt(III) complex of 3; SnCl2.2H2O/DMF for obtaining compound 18, the (chloro)tin(IV) complex of 3; and CrCl2/pyridine for obtaining compound 19, the (bis-pyridine)chromium(III) complex of 3.

Series [2] can be described thus: Solubility in water of compound 3 and its metal complexes. The class given is physicochemical.
Excerpt: as §1

Consider `O=S(=O)(O)C1=Cc2nc1c(-c1c(F)c(F)c(F)c(F)c1F)c1ccc([nH]1)c(-c1c(F)c(F)c(F)c(F)c1F)c1ccc([nH]1)c(-c1c(F)c(F)c(F)c(F)c1F)c1cc(S(=O)(=O)O)c2[nH]1` [Compound 3, 5,10,15-Tris(pentafluorophenyl)-2,17-bis(sulfonic acid)-corrole], for which, in series [1], the “aggregation (linear plots obtained for elucidating the ε values)” value is on record as “absence of aggregation”. In addition, the solubility in water entry in series [2] is on record as “soluble in water”.
